Results taken from paper PMC10411619 (Chemical Science, 2023).

Target: cyt P460 (Nitrosomonas europaea, UniProt Q50927)
Experiment: biochemical

cyt P460, sequence (Q50927 27-198): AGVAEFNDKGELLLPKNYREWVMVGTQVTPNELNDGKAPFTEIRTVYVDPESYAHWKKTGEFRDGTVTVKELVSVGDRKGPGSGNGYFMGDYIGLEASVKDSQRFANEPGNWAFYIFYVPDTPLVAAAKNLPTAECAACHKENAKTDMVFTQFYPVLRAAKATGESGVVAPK

For NO [NH2OH], the Kd was 30 ± 0.7 mM.
